Laboratory results published in US12415834B2, “GhR-binding peptide and composition comprising same” (priority 2021, dated 2025).
Read-outs that look alike come from different tables or passages of the source. Starred links: 1 amine or outer side, 2 acyl side, 3 side chain; linkers in the order of their positions; H or OH if unused. Positions of bridges follow the written chain, without caps; N, C: chain ends. Non-standard residues stand in square brackets, D forms with d. Residues, ends and D or L forms follow the SMILES beside them. Groups on a side chain read outwards from the residue. *: point of attachment. X10 = NC(=O)[C@H](CCCCN*)NC(=O)CC[C@H](NC(=O)CC[C@H](NC(=O)CCCc1ccc(I)cc1)C(=O)O)C(=O)O; Trp(1-CH2CO) = O=C([C@H](Cc1cn(CC(=O)[*:3])c2ccccc12)N[*:1])[*:2]; Trp(5-OMe) = COc1ccc2[nH]cc(C[C@H](N)C(=O)O)c2c1; Butanoyl(4-(4-I-phenyl)) = O=C(CCCc1ccc(I)cc1)*; Trp(5-OH) = N[C@@H](Cc1c[nH]c2ccc(O)cc12)C(=O)O; Phe(4-COOH) = N[C@@H](Cc1ccc(C(=O)O)cc1)C(=O)O; Piperazinyl(4-CH2COOH) = O=C(O)CN1CCN(*)CC1; X7 = O=C(O)CN1CCC(N[*:1])(C(=O)[*:2])CC1; γGlu = O=C(O)[C@H](CCC(=O)[*:2])N[*:1]; Hexanoyl(6-Ph) = O=C(CCCCCc1ccccc1)*; X9 = O=C(CCCc1ccc(-c2ccccc2)cc1)*; 4Pal = N[C@@H](Cc1ccncc1)C(=O)O; NMeK = CN[C@@H](CCCCN)C(=O)O; Aib = CC(C)(N)C(=O)O; CO = O=C([*:1])[*:2]

Target: T1, Recombinant human GhR-Fc protein (Homo sapiens, UniProt P10912)
T1 construct: purchased R&D Systems
Assay: SPR binding assay (Biacore T200, single-cycle kinetics) of peptides against immobilized human GhR-Fc
Protocol: SPR assay was performed using Biacore T200 (cytiva: Former GE Healthcare). After the equilibration of Series S Sensor Chip CM5 (produced by cytiva: Former GE Healthcare) with Running Buffer (HBS-EP with 1% (v/v) DMSO), an EDC/NHS mixture was injected at a flow rate of 10 μL/min for 7 minutes to thereby activate the functional groups on sensor chip. Recombinant human GhR-Fc protein (R&D Systems) in 10 mM Acetate (pH 4.0) was injected immobilized to at a flow rate of 5 μL/min. It took 7 minutes to immobilize the GhR on the substrate surfaces of the sensor chip. Then Ethanolamine was injected at a flow rate of 10 μL/min for 7 minutes. 1M Ethanolamine (aq.) was injected at a flow rate of 10 μL/min for 420 seconds for capping.
Using these Peptide Samples, kinetics of peptides against human GhR-Fc protein were measured. The method adopted for sample measurement was a single-cycle kinetics method. The analysis was conducted using the evaluation software provided with Biacore T200. A DMSO correction curve obtained by solvent correction measurements was applied for the analysis. Kinetics fitting was done on the difference data obtained by subtracting the baseline data from sample measurement data. KD values were calculated based on the association rate constant (ka) and dissociation rate constant (kd). […]

[1] = SPR, hGhR, Table 2 monocyclic peptides, KD calculated from ka and kd, read-out: KD

T1 sequence (P10912 with tags, fused parts or gaps limits assumed): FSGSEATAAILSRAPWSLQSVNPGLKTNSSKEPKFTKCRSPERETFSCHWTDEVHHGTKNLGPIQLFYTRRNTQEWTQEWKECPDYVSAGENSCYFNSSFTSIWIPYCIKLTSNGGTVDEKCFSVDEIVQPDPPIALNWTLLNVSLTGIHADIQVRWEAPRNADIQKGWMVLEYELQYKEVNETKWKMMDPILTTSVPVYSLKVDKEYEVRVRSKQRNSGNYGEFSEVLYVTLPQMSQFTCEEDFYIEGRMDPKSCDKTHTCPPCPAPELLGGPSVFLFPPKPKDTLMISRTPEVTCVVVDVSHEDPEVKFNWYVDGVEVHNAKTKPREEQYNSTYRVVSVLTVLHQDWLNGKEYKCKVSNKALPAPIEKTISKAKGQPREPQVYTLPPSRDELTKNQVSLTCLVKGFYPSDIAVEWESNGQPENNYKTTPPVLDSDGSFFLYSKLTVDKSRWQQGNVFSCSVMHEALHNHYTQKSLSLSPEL

| Structure (SMILES) | Kd [1] | further results |
| --- | --- | --- |
| CC(C)[C@@H]1NC(=O)[C@H](C(C)C)NC(=O)[C@@H]2CCCCNC(=O)Cn3cc(c4ccccc43)C[C@H](NC(=O)[C@H](CC(N)=O)NC(=O)[C@H](CO)NC1=O)C(=O)N[C@@H](Cc1ccc(O)cc1)C(=O)N[C@@H](CCCCN)C(=O)N[C@@H](Cc1c[nH]c3ccc(O)cc13)C(=O)NC(C)(C)C(=O)N[C@@H](C(C)C)C(=O)N[C@H](C(=O)NCCCC[C@H](NC(=O)CC[C@H](NC(=O)CC[C@H](NC(=O)CCCc1ccc(I)cc1)C(=O)O)C(=O)O)C(N)=O)CSCC(=O)N[C@@H](Cc1ccc(O)cc1)C(=O)N2C [Compound 32] ({CH2CO}-Y[NMeK]VVSN[Trp(1-CH2CO)]YK[Trp(5-OH)][Aib]VC-X10; lactam 2-7; thioether N-13) | – | Kd (SPR, hGhR, Table 1 bicyclic peptides, KD calculated from ka and kd, read-out: KD): 0.98 nM |
| COc1ccc2[nH]cc(C[C@@H]3NC(=O)[C@H](CC(N)=O)NC(=O)[C@H](CO)NC(=O)[C@H](C(C)C)NC(=O)[C@H](C(C)C)NC(=O)[C@H](CCCCNC(=O)CC[C@H](NC(=O)CCCc4ccc(I)cc4)C(=O)O)N(C)C(=O)[C@H](Cc4ccncc4)NC(=O)CSC[C@@H](C(N)=O)NC(=O)[C@H](C(C)C)NC(=O)C(C)(C)NC(=O)[C@H](Cc4c[nH]c5ccc(O)cc45)NC(=O)[C@H](CCCCN)NC(=O)[C@H](Cc4ccc(C(=O)O)cc4)NC3=O)c2c1 [Compound 34] ({CH2CO}-[4Pal][NMeK]([γGlu-Butanoyl(4-(4-I-phenyl))])VVSN[Trp(5-OMe)][Phe(4-COOH)]K[Trp(5-OH)][Aib]VC-NH2; thioether N-13) | 2.77 nM | – |
| COc1ccc2[nH]cc(C[C@@H]3NC(=O)[C@H](CC(N)=O)NC(=O)[C@H](CO)NC(=O)[C@H](C(C)C)NC(=O)[C@H](C(C)C)NC(=O)[C@H](CCCCNC(=O)CC[C@H](NC(=O)CCCc4ccc(I)cc4)C(=O)O)N(C)C(=O)[C@H](Cc4ccc(C(=O)O)cc4)NC(=O)CSC[C@@H](C(N)=O)NC(=O)[C@H](C(C)C)NC(=O)C(C)(C)NC(=O)[C@H](Cc4c[nH]c5ccc(O)cc45)NC(=O)[C@H](CCCCNC(=O)N4CCN(CC(=O)O)CC4)NC(=O)[C@H](Cc4ccc(C(=O)O)cc4)NC3=O)c2c1 [Compound 35] ({CH2CO}-[Phe(4-COOH)][NMeK]([γGlu-Butanoyl(4-(4-I-phenyl))])VVSN[Trp(5-OMe)][Phe(4-COOH)]K([CO-Piperazinyl(4-CH2COOH)])[Trp(5-OH)][Aib]VC-NH2; thioether N-13) | 5.47 nM | – |
| COc1ccc2[nH]cc(C[C@@H]3NC(=O)[C@H](CC(N)=O)NC(=O)[C@H](CO)NC(=O)[C@H](C(C)C)NC(=O)[C@H](C(C)C)NC(=O)[C@H](CCCCNC(=O)CC[C@H](NC(=O)CCCc4ccc(I)cc4)C(=O)O)N(C)C(=O)[C@H](Cc4ccc(C(=O)O)cc4)NC(=O)CSC[C@@H](C(N)=O)NC(=O)[C@H](C(C)C)NC(=O)C4(CCN(CC(=O)O)CC4)NC(=O)[C@H](Cc4c[nH]c5ccc(O)cc45)NC(=O)[C@H](CCCCN)NC(=O)[C@H](Cc4ccc(C(=O)O)cc4)NC3=O)c2c1 [Compound 36] ({CH2CO}-[Phe(4-COOH)][NMeK]([γGlu-Butanoyl(4-(4-I-phenyl))])VVSN[Trp(5-OMe)][Phe(4-COOH)]K[Trp(5-OH)][X7]VC-NH2; thioether N-13) | 10.8 nM | – |
| COc1ccc2[nH]cc(C[C@@H]3NC(=O)[C@H](CC(N)=O)NC(=O)[C@H](CO)NC(=O)[C@H](C(C)C)NC(=O)[C@H](C(C)C)NC(=O)[C@H](CCCCNC(=O)CC[C@H](NC(=O)CCCc4ccc(-c5ccccc5)cc4)C(=O)O)N(C)C(=O)[C@H](Cc4ccc(C(=O)O)cc4)NC(=O)CSC[C@@H](C(N)=O)NC(=O)[C@H](C(C)C)NC(=O)C4(CCN(CC(=O)O)CC4)NC(=O)[C@H](Cc4c[nH]c5ccc(O)cc45)NC(=O)[C@H](CCCCN)NC(=O)[C@H](Cc4ccc(C(=O)O)cc4)NC3=O)c2c1 [Compound 37] ({CH2CO}-[Phe(4-COOH)][NMeK]([γGlu-X9])VVSN[Trp(5-OMe)][Phe(4-COOH)]K[Trp(5-OH)][X7]VC-NH2; thioether N-13) | – | Kd: 5.81 nM |
| COc1ccc2[nH]cc(C[C@@H]3NC(=O)[C@H](CC(N)=O)NC(=O)[C@H](CO)NC(=O)[C@H](C(C)C)NC(=O)[C@H](C(C)C)NC(=O)[C@H](CCCCNC(=O)CC[C@H](NC(=O)CCCCCc4ccccc4)C(=O)O)N(C)C(=O)[C@H](Cc4ccc(C(=O)O)cc4)NC(=O)CSC[C@@H](C(N)=O)NC(=O)[C@H](C(C)C)NC(=O)C4(CCN(CC(=O)O)CC4)NC(=O)[C@H](Cc4c[nH]c5ccc(O)cc45)NC(=O)[C@H](CCCCN)NC(=O)[C@H](Cc4ccc(C(=O)O)cc4)NC3=O)c2c1 [Compound 38] ({CH2CO}-[Phe(4-COOH)][NMeK]([γGlu-Hexanoyl(6-Ph)])VVSN[Trp(5-OMe)][Phe(4-COOH)]K[Trp(5-OH)][X7]VC-NH2; thioether N-13) | 2.82 nM | – |
| COc1ccc2[nH]cc(C[C@@H]3NC(=O)[C@H](CC(N)=O)NC(=O)[C@H](CO)NC(=O)[C@H](C(C)C)NC(=O)[C@H](C(C)C)NC(=O)[C@H](CCCCNC(=O)CC[C@H](NC(=O)CCCc4ccc(I)cc4)C(=O)O)N(C)C(=O)[C@H](Cc4ccc(O)cc4)NC(=O)CSC[C@@H](C(N)=O)NC(=O)[C@H](C(C)C)NC(=O)C(C)(C)NC(=O)[C@H](Cc4c[nH]c5ccc(O)cc45)NC(=O)[C@H](CCCCNC(=O)N4CCN(CC(=O)O)CC4)NC(=O)[C@H](Cc4ccc(O)cc4)NC3=O)c2c1 [Compound 44] ({CH2CO}-Y[NMeK]([γGlu-Butanoyl(4-(4-I-phenyl))])VVSN[Trp(5-OMe)]YK([CO-Piperazinyl(4-CH2COOH)])[Trp(5-OH)][Aib]VC-NH2; thioether N-13) | 9.67 nM | – |
| COc1ccc2[nH]cc(C[C@@H]3NC(=O)[C@H](CC(N)=O)NC(=O)[C@H](CO)NC(=O)[C@H](C(C)C)NC(=O)[C@H](C(C)C)NC(=O)[C@H](CCCCNC(=O)CC[C@H](NC(=O)CC[C@H](NC(=O)CCCc4ccc(I)cc4)C(=O)O)C(=O)O)N(C)C(=O)[C@H](Cc4ccc(O)cc4)NC(=O)CSC[C@@H](C(N)=O)NC(=O)[C@H](C(C)C)NC(=O)C(C)(C)NC(=O)[C@H](Cc4c[nH]c5ccc(O)cc45)NC(=O)[C@H](CCCCNC(=O)N4CCN(CC(=O)O)CC4)NC(=O)[C@H](Cc4ccc(C(=O)O)cc4)NC3=O)c2c1 [Compound 47] ({CH2CO}-Y[NMeK]([γGlu-γGlu-Butanoyl(4-(4-I-phenyl))])VVSN[Trp(5-OMe)][Phe(4-COOH)]K([CO-Piperazinyl(4-CH2COOH)])[Trp(5-OH)][Aib]VC-NH2; thioether N-13) | 7.38 nM | – |

More lines, in order of falling Kd [1], values ahead:

| Kd [1] | Structure (SMILES) | further results |
| --- | --- | --- |
| 3.79 nM | COc1ccc2[nH]cc(C[C@@H]3NC(=O)[C@H](CC(N)=O)NC(=O)[C@H](CO)NC(=O)[C@H](C(C)C)NC(=O)[C@H](C(C)C)NC(=O)[C@H](CCCCNC(=O)CC[C@H](NC(=O)CC[C@H](NC(=O)CCCc4ccc(I)cc4)C(=O)O)C(=O)O)N(C)C(=O)[C@H](Cc4ccc(C(=O)O)cc4)NC(=O)CSC[C@@H](C(=O)NCC(=O)N4CCC[C@H]4C(=O)N[C@H](CO)C(=O)N[C@H](CO)C(=O)N[C@H](CO)C(N)=O)NC(=O)[C@H](C(C)C)NC(=O)C(C)(C)NC(=O)[C@H](Cc4c[nH]c5ccc(O)cc45)NC(=O)[C@H](CCCCN)NC(=O)[C@H](Cc4ccc(C(=O)O)cc4)NC3=O)c2c1 [Compound 42] ({CH2CO}-[Phe(4-COOH)][NMeK]([γGlu-γGlu-Butanoyl(4-(4-I-phenyl))])VVSN[Trp(5-OMe)][Phe(4-COOH)]K[Trp(5-OH)][Aib]VCGP[dS][dS][dS]-NH2; thioether N-13) | – |
| 2.96 nM | COc1ccc2[nH]cc(C[C@@H]3NC(=O)[C@H](CC(N)=O)NC(=O)[C@H](CO)NC(=O)[C@H](C(C)C)NC(=O)[C@H](C(C)C)NC(=O)[C@H](CCCCNC(=O)CC[C@H](NC(=O)CC[C@H](NC(=O)CCCc4ccc(I)cc4)C(=O)O)C(=O)O)N(C)C(=O)[C@H](Cc4ccc(C(=O)O)cc4)NC(=O)CSC[C@@H](C(N)=O)NC(=O)[C@H](C(C)C)NC(=O)C(C)(C)NC(=O)[C@H](Cc4c[nH]c5ccc(O)cc45)NC(=O)[C@H](CCCCN)NC(=O)[C@H](Cc4ccc(C(=O)O)cc4)NC3=O)c2c1 [Compound 40] ({CH2CO}-[Phe(4-COOH)][NMeK]([γGlu-γGlu-Butanoyl(4-(4-I-phenyl))])VVSN[Trp(5-OMe)][Phe(4-COOH)]K[Trp(5-OH)][Aib]VC-NH2; thioether N-13) | – |
| 2.63 nM | COc1ccc2[nH]cc(C[C@@H]3NC(=O)[C@H](CC(N)=O)NC(=O)[C@H](CO)NC(=O)[C@H](C(C)C)NC(=O)[C@H](C(C)C)NC(=O)[C@H](CCCCNC(=O)CC[C@H](NC(=O)CCCc4ccc(I)cc4)C(=O)O)N(C)C(=O)[C@H](Cc4ccc(C(=O)O)cc4)NC(=O)CSC[C@@H](C(=O)NCC(=O)N4CCC[C@H]4C(=O)N[C@H](CO)C(=O)N[C@H](CO)C(=O)N[C@H](CO)C(N)=O)NC(=O)[C@H](C(C)C)NC(=O)C(C)(C)NC(=O)[C@H](Cc4c[nH]c5ccc(O)cc45)NC(=O)[C@H](CCCCN)NC(=O)[C@H](Cc4ccc(C(=O)O)cc4)NC3=O)c2c1 [Compound 41] ({CH2CO}-[Phe(4-COOH)][NMeK]([γGlu-Butanoyl(4-(4-I-phenyl))])VVSN[Trp(5-OMe)][Phe(4-COOH)]K[Trp(5-OH)][Aib]VCGP[dS][dS][dS]-NH2; thioether N-13) | – |
| 2.19 nM | COc1ccc2[nH]cc(C[C@@H]3NC(=O)[C@H](CC(N)=O)NC(=O)[C@H](CO)NC(=O)[C@H](C(C)C)NC(=O)[C@H](C(C)C)NC(=O)[C@H](CCCCNC(=O)CC[C@H](NC(=O)CCCc4ccc(I)cc4)C(=O)O)N(C)C(=O)[C@H](Cc4ccc(C(=O)O)cc4)NC(=O)CSC[C@@H](C(N)=O)NC(=O)[C@H](C(C)C)NC(=O)C(C)(C)NC(=O)[C@H](Cc4c[nH]c5ccc(O)cc45)NC(=O)[C@H](CCCCN)NC(=O)[C@H](Cc4ccc(C(=O)O)cc4)NC3=O)c2c1 [Compound 39] ({CH2CO}-[Phe(4-COOH)][NMeK]([γGlu-Butanoyl(4-(4-I-phenyl))])VVSN[Trp(5-OMe)][Phe(4-COOH)]K[Trp(5-OH)][Aib]VC-NH2; thioether N-13) | – |
